Results: US10398751B2, “Pharmaceutical compositions of water soluble peptides with poor solubility in isotonic conditions and methods for their use” (STRONGBRIDGE IRELAND LIMITED, priority 2016, dated 2019)
Values joined by “and” are separate entries in the source; they are usually repeats but may differ in a detail not shown here. Equal entries are not always repeated. Structures can show the parent of a compound that is named as a salt. Where two headings read alike, the source gives them in different places.

Tests used:
[1] = Solubility of COR005 acetate in aqueous media with additives at 25° C.; assay type: physicochemical; details: read-out: Solubility of COR005 Acetate (mg/ml) at 25° C.
Description: Table 3 summarizes the solubility values of COR005 acetate in various aqueous media, the effects of additives such as DEX and HPB on the peptide solubility in saline and physiological conditions, as well as the PK profile of IR and MS formulations prepared with these additives in comparison to COR005 without additives as control.
Note that both media (PBS or Saline) contained physiological concentrations of chloride which indicates the incompatibility and salting out of the peptide in the presence of the chloride ion.
The relatively high solubility of COR005 acetate in 5% dextrose (in water) of greater than 500 mg/ml indicates the improved solubility of the peptide in water with dextrose. […] Note that this 1:1 diluted dextrose in saline was used as a vehicle in the IR study of COR005 acetate in rats and minipigs (the DEX:PEP ratio was 5:1).

[2] = Density, pH and surface tension of solutions (capillary method); assay type: physicochemical
Description: Tween 80 was used as a control surfactant for comparison. Densities were measured on 1 mL fixed volume samples. […] The effect of veldoreotide acetate on the pH of double distilled water (DDW) was the same at all veldoreotide acetate concentrations. The pH of DDW of 5.0 was reduced to pH 4.5. The effect of veldoreotide acetate on the density of DDW (starting density of DDW was 1.003 g/ml) was concentration dependent from 1.4 mg/ml to 21.5 mg/ml with density ranging from 0.986 to 0.998 g/ml respectively. However, at veldoreotide acetate concentrations of 45 and 102 mg/ml the density was increased above the starting density of DDW. […] The effect of veldoreotide acetate on the surface tension of DDW (starting surface tension was 64.9 dyne/cm) was consistent with veldoreotide acetate behaving as a peptide amphiphile (surfactant). The surface tension of DDW was reduced by veldoreotide acetate at maximum from 64.9 to 45 dyne/cm. In order to elucidate the meaning of this effect, Tween 80 was used as a reference surfactant. Other surfactants include Polexamer 188. The reduction of surface tension induced by Tween 80 was in the range of 40% (from 64.9 dyne/cm to about 39 dyne/cm), in comparison to veldoreotide acetate of 30% (from 64.9 dyne/cm to about 45 dyne/cm). Note that, under these experimental conditions; the effect of Tween 80 indicated a concentration-effect relationship. Whereas, the effect of veldoreotide acetate on the reduction of surface tension was at the same range for all concentrations tested.
The data of table 4 show the surface activity of highly concentrated COR005 acetate (200 mg/ml), with or without additives in WFI, which emulates the preparation conditions of the primary emulsion of the microspheres. The results of Test 1 and 2 (Table 4) show the effect of COR005 acetate on the surface tension of water. When COR005 acetate is dissolved in water the surface tension is reduced by about 36%, from 68.5 dyne/cm for the water alone to 44 dyne/cm for the solution of water with CR005 acetate at 200 mg/ml.

[3] = Solubility and surface activity in PBS under physiological conditions (37° C.); assay type: physicochemical; details: PBS pH 7.4, 37° C., COR005 10 mg/ml
Description: Table 6 summarizes the effects of additives on the surface activity profile of COR005 acetate under physiological conditions (37° C.) that emulate the release of COR005 at the injection site.

in vivo = test: in vivo; set-up: species or system rats; details: Sprague-Dawley, rat, sc
Description: The lactic acid vehicle for use in the formulations as shown in Table 7 below was prepared as follows: Formulations for injection into rats were prepared as summarized in Table 8. Subject rats (mean weight of about 370 grams per subject) were injected according to the above dosing schedule in groups of 5 rats per treatment. Baseline tail bleed samples were drawn from the rats at 2 days prior to dosing. […] Blood samples were approximately 300 uL of whole blood collected in commercial K3 EDTA-coated tubes. Subject rats were also observed for injection site reactions for up to 5-7 days post-dosing. Blood samples were kept on ice following collection until the time of centrifugation. Blood samples were processed within 60 minutes from blood collection. Samples were centrifuged at 3000 G for 15 minutes in a refrigerated centrifuge (5° C.). Plasma was withdrawn from the tubes after centrifugation and placed into new, appropriately labeled tubes and stored at −65° C. to −80° C. until transfer. […] Veldoreotide acetate standard was serially diluted with methanol:water (1:9) and added to blank rat plasma to generate calibration standards and QC samples. The calibration samples were stored at −70° C. Frozen samples were then thawed to room temperature. Blank plasma and reagent blank (water) were also prepared. For each 100 uL aliquot of sample, calibrator or QC sample, 25 uL (˜100 ng/mL) of internal standard (octreotide acetate) in methanol:water (1:9) and 600 uL of acetonitrile:formic acid (99:1) were added and the samples vortex mixed for 30 seconds. Samples were diluted by mixing 20 uL of plasma sample with 180 uL of blank plasma and aliquotted at 100 uL prior to addition of the internal standard and acetonitrile:formic acid solutions. Samples were then centrifuged for 10 minutes at 14,000 rpm at 8° C. 450 uL of the upper (organic) layer was then transferred to evaporation tubes and evaporated under nitrogen at about 50° C. Samples were then reconstituted in 200 uL of reconstitution solution (water:acetonitrile:formic acid at 70:30:0.2). Samples were centrifuged for 10 minutes at 4000 rpm at 8° C. 160 uL of each sample was withdrawn and placed in an autosampler vial with conic glass insert and analyzed via LC-MS/MS. Veldoreotide acetate plasma concentrations were then plotted and analyzed using standard pharmacokinetic techniques.

[4] = 1.4 mg/ml in DDW pH 4.5, 25° C.
[5] = 102 mg/ml in DDW pH 4.5, 25° C.
[6] = 200 mg/ml + 50 mg/ml HPBCD in WFI (HPB:PEP 1:4), 5° C.
[7] = 200 mg/ml + 100 mg/ml HPBCD in WFI (HPB:PEP 1:2), 5° C.
[8] = 200 mg/ml in 5% Dextrose in WFI (DEX:PEP 1:8), 5° C.

C[C@@H](O)[C@@H]1NC(=O)[C@H](CCCCN)NC(=O)[C@@H](Cc2c[nH]c3ccccc23)NC(=O)[C@H](Cc2c[nH]c3ccccc23)NC(=O)[C@H](Cc2ccccc2)NC(=O)CCCNC(=O)CCCN(CC(N)=O)C(=O)[C@H](Cc2ccccc2)NC1=O [Veldoreotide Acetate, Cyclo(-γ-aminobutyryl-L-phenylalanyl-L-tryptophanyl-D-tryptophanyl-L-lysyl-L-threonyl-L-phenylalanyl-N-carbamoylmethyl-γ-aminobutyryl), acetate salt]
solubility ([1]; 0.45% NaCl with […] dextrose (isotonic), Isotonic 0.45NS (0.45% NaCl) 2.5D Dextrose […], DEX:PEP 5:1): 6 to 7 mg/mL
solubility ([1]; 0.45% NaCl, 0.45NS - 0.45% NaCl, additives none): 3 mg/mL
solubility ([1]; 5% dextrose in water (isotonic), 5% Dextrose Isotonic, additives none): ≥ 300 mg/mL
solubility ([1]; isotonic PBS pH 7.4, pH 7.4, PBS pH 7.4 Isotonic, HPB:PEP 1:1): 4.5 mg/mL
solubility ([1]; isotonic PBS pH 7.4, pH 7.4, PBS pH 7.4 Isotonic, HPB:PEP 1:4): 2.5 mg/mL
solubility ([1]; isotonic PBS pH 7.4, pH 7.4, PBS pH 7.4 Isotonic, HPB:PEP 10:1): 10 mg/mL
solubility ([1]; isotonic PBS with HPB, pH 7.4, PBS pH 7.4 Isotonic, HPB:PEP 1:2): 2.5 mg/mL
solubility ([1]; isotonic PBS with dextrose, pH 7.4, PBS pH 7.4 Isotonic, DEX:PEP 1:8): 2 mg/mL
solubility ([1]; isotonic PBS with dextrose, pH 7.4, PBS pH 7.4 Isotonic, DEX:PEP 5:1): 1.6 mg/mL
solubility ([1]; isotonic saline, Saline Isotonic, HPB:PEP 15:1): 10 mg/mL
solubility ([1]; isotonic saline, Saline Isotonic, Lys-HCl:PEP 4:1): 1.7 mg/mL
solubility ([1]; lactic acid buffer pH 4.0, isotonic, pH 4, Lactic acid buffer pH 4.0 Isotonic, MAN:PEP 20:1, HPB:PEP 15:1, Est. = estimated by UV-Vis): 500 mg/mL
solubility ([1]; lactic acid buffer pH 4.0, isotonic, pH 4, Lactic acid buffer pH 4.0 Isotonic, Mannitol MAN:PEP 20:1, Est. = estimated by UV-Vis): 500 mg/mL
solubility ([1]; normal saline (0.9% NaCl), NS - 0.9% NaCl, additives none): 1 to 2 mg/mL
solubility ([1]; water, additives none): ≥ 300 mg/mL
% change in surface tension compared to baseline [2, 4]: −30%
Density (g/ml) Weighted 1 ml [2, 4]: 0.986 g/mL
Surface tension (dyne/cm) capillary method [2, 4]: 45.2 dyne/cm
density of DDW solution ([2]; 1.4 mg/ml to 21.5 mg/ml, starting density of DDW 1.003 g/ml): 0.986 to 0.998 g/mL
% change in surface tension compared to baseline ([2]; 12 mg/ml in DDW pH 4.5, 25° C.): −28%
Density (g/ml) Weighted 1 ml ([2]; 12 mg/ml in DDW pH 4.5, 25° C.): 0.994 g/mL
Surface tension (dyne/cm) capillary method ([2]; 12 mg/ml in DDW pH 4.5, 25° C.): 46.9 dyne/cm
% change in surface tension compared to baseline ([2]; 21 mg/ml in DDW pH 4.5, 25° C.): −27%
Density (g/ml) Weighted 1 ml ([2]; 21 mg/ml in DDW pH 4.5, 25° C.): 0.998 g/mL
Surface tension (dyne/cm) capillary method ([2]; 21 mg/ml in DDW pH 4.5, 25° C.): 47.1 dyne/cm
% change in surface tension compared to baseline ([2]; 45 mg/in DDW pH 4.5, 25° C.): −29%
Density (g/ml) Weighted 1 ml ([2]; 45 mg/in DDW pH 4.5, 25° C.): 1.003 g/mL
Surface tension (dyne/cm) capillary method ([2]; 45 mg/in DDW pH 4.5, 25° C.): 45.97 dyne/cm
% change in surface tension compared to baseline [2, 5]: −24%
Density (g/ml) Weighted 1 ml [2, 5]: 1.015 g/mL
Surface tension (dyne/cm) capillary method [2, 5]: 49.3 dyne/cm
% change in surface tension compared to baseline [2, 6]: −34%
Density (g/ml) Weighted 1 ml [2, 6]: 1.04 g/mL
Surface tension (dyne/cm) capillary method [2, 6]: 45 dyne/cm
% change in surface tension compared to baseline [2, 7]: −26%
Density (g/ml) Weighted 1 ml [2, 7]: 1.12 g/mL
Surface tension (dyne/cm) capillary method ([2]; 200 mg/ml + 100 mg/ml HPBCD in WFI (HPB:PEP 1:2), 5° C., acetate salt): 51 dyne/cm
Surface tension (dyne/cm) capillary method ([2]; 200 mg/ml + 100 mg/ml HPBCD in WFI (HPB:PEP 1:2), 5° C., listed as peptide, acetate salt): 52 dyne/cm and 51 dyne/cm
% change in surface tension compared to baseline [2, 8]: −14%
Density (g/ml) Weighted 1 ml [2, 8]: 1.03 g/mL
Surface tension (dyne/cm) capillary method ([2]; 200 mg/ml in 5% Dextrose in WFI (DEX:PEP 1:8), 5° C., acetate salt): 54 dyne/cm
Surface tension (dyne/cm) capillary method ([2]; 200 mg/ml in 5% Dextrose in WFI (DEX:PEP 1:8), 5° C., listed as peptide, acetate salt): 54 dyne/cm
Density (g/ml) Weighted 1 ml ([2]; 200 mg/ml in WFI, 5° C.): 1.03 g/mL
Surface tension (dyne/cm) capillary method ([2]; 200 mg/ml in WFI, 5° C.): 44 dyne/cm
% change in surface tension compared to baseline ([2]; 200 mg/ml in WFI, 5° C., acetate salt): −36%
% change in surface tension compared to baseline ([2]; 200 mg/ml in WFI, 5° C., listed as COR005 acetate, acetate salt): about 36%
surface tension of DDW solution ([2]; DDW pH 5.0, 25° C., baseline 64.9 dyne/cm (text summary, concentration not specified), acetate salt): about 45 dyne/cm
reduction of surface tension of water ([2]; DDW, 25° C., baseline 64.9 dyne/cm, acetate salt): 30%
pH of DDW solution ([2]; all concentrations, DDW pH 5.0 before): 4.5
Surface tension (dyne/cm) ([3]; HPB:PEP 1:4): 39 dyne/cm
Surface tension (dyne/cm) ([3]; no additive): 34 dyne/cm
Cmax (in vivo; 3 mg/kg, Rats Cmax (ng/ml)): 544 ng/mL
bioavailability (in vivo; 3 mg/kg, pH 4, Rats BA (F %)): 83%
Cmax (in vivo; 3 mg/kg, pH 4, Rats Cmax (ng/ml)): 345 ng/mL
bioavailability (in vivo; […], Rats BA (F %)): 82%
bioavailability (in vivo; pH 4, Rats BA (F %)): 70%
Cmax (in vivo; pH 4, Rats Cmax (ng/ml)): 350 ng/mL
